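All cell lines were grown in 96-well plates and treated with compound for 48 hours. Abbreviation: GI50, concentration required for 50% inhibition of growth. TGI denotes the concentration required for complete inhibition of growth.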
Columns and labels:
Experiment in all cases: inhibition of tumour cell growth, NCI panel, 48 h
PC-3 prostate = tested on: PC-3 prostate
NCI-H522 lung = tested on: NCI-H522 lung
SF-295 CNS = tested on: SF-295 CNS
DU-145 prostate = tested on: DU-145 prostate
SW-620 colon = tested on: SW-620 colon
SR leukemia = tested on: SR leukemia
HCT-116 colon = tested on: HCT-116 colon
OVCAR-3 ovarian = tested on: OVCAR-3 ovarian
NCI-H23 lung = tested on: NCI-H23 lung
OVCAR-8 ovarian = tested on: OVCAR-8 ovarian
HOP-62 NSCLC = tested on: HOP-62 NSCLC
ACHN renal = tested on: ACHN renal
BT-549 breast = tested on: BT-549 breast
CCRF-CEM leukemia = tested on: CCRF-CEM leukemia
SK-MEL-28 melanoma = tested on: SK-MEL-28 melanoma
SN12C renal = tested on: SN12C renal
HCT-15 colon = tested on: HCT-15 colon
IGROV1 ovarian = tested on: IGROV1 ovarian
EKVX NSCLC = tested on: EKVX NSCLC
U251 CNS = tested on: U251 CNS
HCC-2998 colon = tested on: HCC-2998 colon
T-47D breast = tested on: T-47D breast
SK-MEL-5 melanoma = tested on: SK-MEL-5 melanoma
LOX IMVI melanoma = tested on: LOX IMVI melanoma
KM12 colon = tested on: KM12 colon
UACC-257 melanoma = tested on: UACC-257 melanoma
SK-MEL-2 melanoma = tested on: SK-MEL-2 melanoma
HOP-92 NSCLC = tested on: HOP-92 NSCLC
SNB-19 CNS = tested on: SNB-19 CNS
NCI-H226 lung = tested on: NCI-H226 lung
UO-31 renal = tested on: UO-31 renal
K-562 leukemia = tested on: K-562 leukemia
A498 renal = tested on: A498 renal
MDA-MB-435 = tested on: MDA-MB-435
786-0 renal = tested on: 786-0 renal
HL-60(TB) leukemia = tested on: HL-60(TB) leukemia
RXF 393 renal = tested on: RXF 393 renal
MDA-MB-231 breast = tested on: MDA-MB-231 breast
SK-OV-3 ovarian = tested on: SK-OV-3 ovarian
A549 NSCLC = tested on: A549 NSCLC
SF-268 CNS = tested on: SF-268 CNS
RPMI-8226 leukemia = tested on: RPMI-8226 leukemia
TK-10 renal = tested on: TK-10 renal
UACC-62 melanoma = tested on: UACC-62 melanoma
OVCAR-4 ovarian = tested on: OVCAR-4 ovarian
MCF7 breast = tested on: MCF7 breast
MDA-MB-468 breast = tested on: MDA-MB-468 breast
SF-539 CNS = tested on: SF-539 CNS
HT29 colon = tested on: HT29 colon
OVCAR-5 ovarian = tested on: OVCAR-5 ovarian
NCI-H460 lung = tested on: NCI-H460 lung
COLO 205 colon = tested on: COLO 205 colon
MALME-3M melanoma = tested on: MALME-3M melanoma
CAKI-1 renal = tested on: CAKI-1 renal

COc1cc(/C=C/C(=O)c2cnn(-c3cc(=O)[nH]c4ccc(Br)cc34)c2C)cc(OC)c1OC
GI50 (PC-3 prostate): 5.19 µM | TGI (PC-3 prostate): > 100 µM | GI50 (NCI-H522 lung): 2.26 µM | TGI (NCI-H522 lung): 5.98 µM | GI50 (SF-295 CNS): 2.4 µM | TGI (SF-295 CNS): 7.75 µM | GI50 (DU-145 prostate): 3.61 µM | TGI (DU-145 prostate): 30.5 µM | GI50 (SW-620 colon): 3.09 µM | TGI (SW-620 colon): 8.61 µM | GI50 (SR leukemia): 2.44 µM | TGI (SR leukemia): > 100 µM | GI50 (HCT-116 colon): 3.27 µM | TGI (HCT-116 colon): 11.5 µM | GI50 (OVCAR-3 ovarian): 3.45 µM | TGI (OVCAR-3 ovarian): 12.1 µM | GI50 (NCI-H23 lung): 1.92 µM | TGI (NCI-H23 lung): 4.33 µM | GI50 (OVCAR-8 ovarian): 3.48 µM | TGI (OVCAR-8 ovarian): > 100 µM | GI50 (HOP-62 NSCLC): 3.55 µM | TGI (HOP-62 NSCLC): 17.2 µM | GI50 (ACHN renal): 1.84 µM | TGI (ACHN renal): 4.31 µM | GI50 (BT-549 breast): 2.29 µM | TGI (BT-549 breast): 6.28 µM | GI50 (CCRF-CEM leukemia): 2.88 µM | TGI (CCRF-CEM leukemia): > 100 µM | GI50 (SK-MEL-28 melanoma): 2.84 µM | TGI (SK-MEL-28 melanoma): 8.75 µM | GI50 (SN12C renal): 2.94 µM | TGI (SN12C renal): 11.6 µM | GI50 (HCT-15 colon): 1.71 µM | TGI (HCT-15 colon): 3.92 µM | GI50 (IGROV1 ovarian): 2.23 µM | TGI (IGROV1 ovarian): 6.33 µM | GI50 (EKVX NSCLC): 2.96 µM | TGI (EKVX NSCLC): 13.4 µM | GI50 (U251 CNS): 2.54 µM | TGI (U251 CNS): 7.37 µM | GI50 (HCC-2998 colon): 3.3 µM | TGI (HCC-2998 colon): 11 µM | GI50 (T-47D breast): 3.06 µM | TGI (T-47D breast): 18.8 µM | GI50 (SK-MEL-5 melanoma): 3.05 µM | TGI (SK-MEL-5 melanoma): 10.7 µM | GI50 (LOX IMVI melanoma): 1.49 µM | TGI (LOX IMVI melanoma): 3.35 µM | GI50 (KM12 colon): 3.48 µM | TGI (KM12 colon): 14.6 µM | GI50 (UACC-257 melanoma): 7.78 µM | TGI (UACC-257 melanoma): 48.5 µM | GI50 (SK-MEL-2 melanoma): 3.52 µM | TGI (SK-MEL-2 melanoma): 12.2 µM | GI50 (HOP-92 NSCLC): 8.2 µM | TGI (HOP-92 NSCLC): > 100 µM | GI50 (SNB-19 CNS): 3.25 µM | TGI (SNB-19 CNS): 12.6 µM | GI50 (NCI-H226 lung): 2.49 µM | TGI (NCI-H226 lung): 7.38 µM | GI50 (UO-31 renal): 2.83 µM | TGI (UO-31 renal): 12.5 µM | GI50 (K-562 leukemia): 2.86 µM | TGI (K-562 leukemia): > 100 µM | GI50 (A498 renal): 28.5 µM | TGI (A498 renal): 51.6 µM | GI50 (MDA-MB-435): 2.72 µM | TGI (MDA-MB-435): 8.65 µM | GI50 (786-0 renal): 3.63 µM | TGI (786-0 renal): 14.3 µM | GI50 (HL-60(TB) leukemia): 3 µM | TGI (HL-60(TB) leukemia): > 100 µM | GI50 (RXF 393 renal): 1.87 µM | TGI (RXF 393 renal): 3.95 µM | GI50 (MDA-MB-231 breast): 3.11 µM | TGI (MDA-MB-231 breast): 13.7 µM | GI50 (SK-OV-3 ovarian): 4.34 µM | TGI (SK-OV-3 ovarian): > 100 µM | GI50 (A549 NSCLC): 3.52 µM | TGI (A549 NSCLC): > 100 µM | GI50 (SF-268 CNS): 3.76 µM | TGI (SF-268 CNS): > 100 µM | GI50 (RPMI-8226 leukemia): 2.84 µM | TGI (RPMI-8226 leukemia): > 100 µM | GI50 (TK-10 renal): 3.8 µM | TGI (TK-10 renal): 24.1 µM | GI50 (UACC-62 melanoma): 1.79 µM | TGI (UACC-62 melanoma): 4 µM | GI50 (OVCAR-4 ovarian): 5.2 µM | TGI (OVCAR-4 ovarian): > 100 µM | GI50 (MCF7 breast): 2.16 µM | TGI (MCF7 breast): 9.06 µM | GI50 (MDA-MB-468 breast): 1.93 µM | TGI (MDA-MB-468 breast): 5.43 µM | GI50 (SF-539 CNS): 2.03 µM | TGI (SF-539 CNS): 4.54 µM | GI50 (HT29 colon): 2.2 µM | TGI (HT29 colon): 5.07 µM | GI50 (OVCAR-5 ovarian): 3.09 µM | TGI (OVCAR-5 ovarian): 10.7 µM | GI50 (NCI-H460 lung): 2.39 µM | TGI (NCI-H460 lung): 5.37 µM | GI50 (COLO 205 colon): 3.35 µM | TGI (COLO 205 colon): 10.9 µM | GI50 (MALME-3M melanoma): 4.66 µM | TGI (MALME-3M melanoma): 22.3 µM | GI50 (CAKI-1 renal): 4.11 µM | TGI (CAKI-1 renal): 31.3 µM

Source: PubChem BioAssay (NCI)
